Test results published in patent US10280163B2 (BeiGene, Ltd., priority 2015, dated 2019).
Where a name gives a salt, the structure may show the parent alone. Read-outs that look alike come from different tables or passages of the source.

Assays:
[1] = target: T1, cellular IDO1 in HeLa cells (Homo sapiens, UniProt P14902); assay: HeLa cell-based IDO1 Kyn (kynurenine) production assay; conditions: IFN-γ 100 ng/mL, 48 hours
T1 construct: endogenous in cells; host or cells: HeLa cells (American Type Tissue Culture Collection), induced with human recombinant IFN-γ
Description: HeLa Cell-Based IDO1 Kyn (Kynurenine) Production Assay:
The inhibitory activity of IDO1 inhibitors is determined by using a colorimetric reaction to measure Kyn generated from L-Trp (L-Tryptophon) oxidation by cellular IDO1 in HeLa cells after induction of IDO1 by IFN-γ.
Hela cells were obtained from the American Type Tissue Culture Collection and recovered in 10% FBS-containing phenol red-free DMEM medium supplemented with 0.4 mM L-Trp. Cells were plated onto a 96-well plate (100 μl/well) at 8000 cells per well. Human recombinant IFN-γ (8901SC, CST) was added to cells (final concentration 100 ng/mL) to stimulate endogenous IDO1. Compounds at different concentrations diluted in dimethylsulfoxide (DMSO) were added simultaneously with IFN-γ. Cells were kept at 37° C. in a humidified incubator supplied with 5% CO2. After 48 hours of incubation, 100 μl supernatant from each well was removed to a new plate. The protein in the medium was precipitated with the addition of 8 μl 6N trichloroacetic acid. The plate was incubated at 60° C. for 45 min and then centrifugation at 2500 rpm for 10 min to remove sediments. 80 μl supernatants were carefully removed to a new clean plate and added with an equal volume of 2% 4-(Dimethylamino) benzaldehyde (D2004, sigma) dissolved in glacial acetic acid. The absorbance at 480 nm wavelength derived from Kyn was measured using a FULOstar OMEGA plate reader (BMG LABTECH). The IC50 for each compound was derived from fitting the dose-response data to the four-parameter logistic model by using Graphpad Prism software.

[2] = target: T2, Recombinant IDO1 (Homo sapiens, UniProt P14902); assay: IDO1 enzymatic assay; assay type: biochemical; conditions: 50 nM IDO1, 1.3 mM D-tryptophan, read-out: Enzyme IC50 (nM) IDO1
T2 construct: His tag (N); made in house; host or cells: E. coli
Description: Recombinant IDO1 was overexpressed and purified from E. coli cells with an N-terminal His tag. IDO1 enzymatic assay was carried out using a methodology similar to described in the literature (J. Biol. Chem. (1980), 255, 1339-1345.). The reaction mixture contains 50 nM IDO1, 1.3 mM D-tryptophan, 5 mM L-ascorbic acid, 6.25 μM methylene Blue, 0.4 mg/mL catalase and compound (or DMSO) in a buffer containing 50 mM potassium phosphate pH 7.5 and 0.1% BSA. After incubation at 24° C. for 1.5 hours, absorbance of the reaction mixture was continuously read at 321 nm to monitor the formation of N′-formylkynurenine by a FULOstar OMEGA plate reader (BMG LABTECH) for 1 hour. The enzymatic activity was determined by measuring the slope of the linear absorbance increase as a function of time. The IC50s are calculated based on remaining enzyme activity in the presence of increasing concentrations of compounds.

[3] = Table 1, 5-substituted imidazo[1,5-a]pyridines
[4] = Table 2, 8-substituted imidazo[1,5-a]pyridines

T2 sequence (P14902 whole entry): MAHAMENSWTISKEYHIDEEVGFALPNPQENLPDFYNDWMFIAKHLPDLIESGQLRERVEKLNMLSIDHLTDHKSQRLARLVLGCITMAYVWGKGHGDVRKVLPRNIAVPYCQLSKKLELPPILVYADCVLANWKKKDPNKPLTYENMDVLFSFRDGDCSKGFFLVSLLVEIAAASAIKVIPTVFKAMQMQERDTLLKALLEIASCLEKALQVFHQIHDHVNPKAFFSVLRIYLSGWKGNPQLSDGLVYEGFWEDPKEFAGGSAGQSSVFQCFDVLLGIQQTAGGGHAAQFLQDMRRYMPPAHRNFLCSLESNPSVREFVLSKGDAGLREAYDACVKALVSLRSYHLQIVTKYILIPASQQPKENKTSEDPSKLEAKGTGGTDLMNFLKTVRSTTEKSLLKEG
T1 sequence (P14902 whole entry): as above

Molecule	EC50 [1, 3] [nM]	IC50 [2, 3] [nM]	EC50 [1, 4] [nM]	IC50 [2, 4] [nM]
1-(7-bromo-8-chloroimidazo[1,5-a]pyridin-5-yl)-2-cyclohexylethan-1-ol [Example A147]	2790	420	–	–
OC(c1c(C2CC2)ccn2cncc12)C1CCC(c2ccccc2)CC1 (mixture of isomers) [Example B143, (7-cyclopropylimidazo[1,5-a]pyridin-8-yl)(4-phenylcyclohexyl)methanol]	–	–	149	100
OC1CCCC(C(O)c2c(C3CC3)ccc3cncn23)C1 (racemic) [Example A164a, 3-((6-Cyclopropylimidazo[1,5-a]pyridin-5-yl)(hydroxy)methyl)cyclohexan-1-ol]	598	71	–	–
OC1CCCC(C(O)c2c(C3CC3)ccc3cncn23)C1 (racemic) [Example A164c, 3-((6-Cyclopropylimidazo[1,5-a]pyridin-5-yl)(hydroxy)methyl)cyclohexan-1-ol]	570	54	–	–
OC(c1c([C@H]2C[C@H]2F)ccn2cncc12)C1CCCCC1 (mixture of isomers) [Example B126b, cyclohexyl(7-(cis-2-fluorocyclopropyl)imidazo [1,5-a]pyridin-8-yl)methanol]	–	–	676	340
OC(CC1CCCCC1)c1c([C@H]2C[C@H]2F)ccn2cncc12 (mixture of isomers) [Example B127b, 2-Cyclohexyl-1-(7-(cis-2-fluorocyclopropyl)imidazo[1,5-a]pyridin-8-yl)ethan-1-ol]	–	–	1130	93
OC(c1c([C@H]2C[C@@H]2F)ccn2cncc12)C1CCCCC1 (mixture of isomers) [Example B128a, Cyclohexyl(7-((trans)-2-fluorocyclopropyl)imidazo[1,5-a]pyridin-8-yl)methanol]	–	–	184	100
OC(c1c([C@H]2C[C@H]2F)ccn2cncc12)C1CCCCC1 (relative stereo) [Example B126a, cyclohexyl(7-(cis-2-fluorocyclopropyl)imidazo [1,5-a]pyridin-8-yl)methanol]	–	–	942	340
OC(CC1CCCCC1)c1c([C@H]2C[C@H]2F)ccn2cncc12 (relative stereo) [Example B127a, 2-Cyclohexyl-1-(7-(cis-2-fluorocyclopropyl)imidazo[1,5-a]pyridin-8-yl)ethan-1-ol]	–	–	595	88
OC(c1cccc2cncn12)C1CCCCC1 (single isomer, unassigned) [Example A001b]	–	11000	–	–
OC1CCC(C(O)c2c(C3CC3)ccc3cncn23)CC1 (single isomer, unassigned) [Example A142b]	312	31	–	–
OC1CCC([C@@H](O)c2c(C3CC3)ccc3cncn23)CC1 (single isomer, unassigned) [Example A142c]	> 10000	2000	–	–
OC1CCC([C@@H](O)c2c(C3CC3)ccc3cncn23)CC1 (single isomer, unassigned) [Example A142d]	> 10000	9200	–	–
CC(C)c1ccn2cncc2c1C(O)C1CCCCC1 (single isomer, unassigned) [Example B106a]	–	–	129	23
CC(C)c1ccn2cncc2c1C(O)C1CCCCC1 (single isomer, unassigned) [Example B106b]	–	–	> 10000	1800
OC(CC1CCCCC1)c1c(C2CC2)ccn2cncc12 (single isomer, unassigned) [Example B110a]	–	–	215	18
OC(CC1CCCCC1)c1c(C2CC2)ccn2cncc12 (single isomer, unassigned) [Example B110b]	–	–	> 10000	4.9
OC(c1c(C2CC2)ccn2cncc12)[C@H]1CC[C@H](O)CC1 (single isomer, unassigned) [Example B119a, (trans)-4-((7-Cyclopropylimidazo[1,5-a]pyridin-8-yl)(hydroxy)methyl)cyclohexan-1-ol]	–	–	1360	280
OC(c1c(C2CC2)ccn2cncc12)[C@H]1CC[C@H](O)CC1 (single isomer, unassigned) [Example B119b, (trans)-4-((7-Cyclopropylimidazo[1,5-a]pyridin-8-yl)(hydroxy)methyl)cyclohexan-1-ol]	–	–	> 10000	5500
OC(c1c(C2CC2)ccn2cncc12)[C@H]1CC[C@@H](O)CC1 (single isomer, unassigned) [Example B119c]	–	–	> 10000	7700

Molecule	EC50 [1, 3] [nM]	IC50 [2, 3] [nM]	EC50 [1, 4] [nM]	IC50 [2, 4] [nM]
OC(c1c(C2CC2)ccn2cncc12)[C@H]1CC[C@@H](O)CC1 (single isomer, unassigned) [Example B119d]	–	–	2990	110
CC(C)c1ccn2cncc2c1C(O)[C@H]1CC[C@H](O)CC1 (single isomer, unassigned) [Example B121a, (trans)-4-(Hydroxy(7-isopropylimidazo[1,5-a]pyridin-8-yl)methyl) cyclohexan-1-ol]	–	–	719	210
CC(C)c1ccn2cncc2c1C(O)[C@H]1CC[C@H](O)CC1 (single isomer, unassigned) [Example B121b, (trans)-4-(Hydroxy(7-isopropylimidazo[1,5-a]pyridin-8-yl)methyl) cyclohexan-1-ol]	–	–	> 10000	21000
CC(C)c1ccn2cncc2c1[C@@H](O)[C@H]1CC[C@@H](O)CC1 (single isomer, unassigned) [Example B121c]	–	–	1670	110
OC(c1cccc2cncn12)C1CCCC1 (centres unmarked) [Example A002, cyclopentyl(imidazo[1,5-a]pyridin-5-yl)methanol]	–	150	–	–
OC(c1cccc2cncn12)C1CC1 (centres unmarked) [Example A003, cyclopropyl(imidazo[1,5-a]pyridin-5-yl)methanol]	–	3800	–	–
C#CC(O)c1cccc2cncn12 (centres unmarked) [Example A006, 1-(imidazo[1,5-a]pyridin-5-yl)prop-2-yn-1-ol]	–	4600	–	–
OC(c1ccccc1)c1cccc2cncn12 (centres unmarked) [Example A007, imidazo[1,5-a]pyridin-5-yl(phenyl)methanol]	–	5100	–	–
OC(c1cccc2cncn12)C1CCOCC1 (centres unmarked) [Example A010, imidazo[1,5-a]pyridin-5-yl(tetrahydro-2H-pyran-4-yl)methanol]	–	3100	–	–
CC(C)(C)OC(=O)N1CCC(C(=O)c2cccc3cncn23)CC1 [Example A011, Tert-butyl 4-(imidazo[1,5-a]pyridine-5-carbonyl)piperidine-1-carboxylate]	–	> 100000	–	–
CC(C)(C)OC(=O)N1CCC(C(O)c2cccc3cncn23)CC1 (centres unmarked) [Example A012, Tert-butyl 4-(hydroxy(imidazo[1,5-a]pyridin-5-yl)methyl)piperidine-1-carboxylate]	–	41000	–	–
OC(c1cccc2cncn12)C1CCNCC1 (centres unmarked) [Example A013, Imidazo[1,5-a]pyridin-5-yl(piperidin-4-yl)methanol hydrochloride]	–	> 100000	–	–
CN1CCC(C(O)c2cccc3cncn23)CC1 (centres unmarked) [Example A014, Imidazo[1,5-a]pyridin-5-yl(1-methylpiperidin-4-yl)methanol]	–	> 100000	–	–
CC(O)c1cccc2cncn12 (centres unmarked) [Example A017, 1-(imidazo[1,5-a]pyridin-5-yl)ethan-1-ol]	–	62000	–	–
OC(c1cccc2cncn12)C1CCC1 (centres unmarked) [Example A018, cyclobutyl(imidazo[1,5-a]pyridin-5-yl)methanol]	–	1800	–	–
OC(Cc1ccccc1)c1cccc2cncn12 (centres unmarked) [Example A019, 1-(imidazo[1,5-a]pyridin-5-yl)-2-phenylethan-1-ol]	–	21000	–	–
OC(c1ccc(Br)c2cncn12)C1CCCCC1 (centres unmarked) [Example A023, (8-bromoimidazo[1,5-a]pyridin-5-yl)(cyclohexyl)methanol]	–	6500	–	–
OC(c1ccc(Cl)c2cncn12)C1CCCCC1 (centres unmarked) [Example A024, (8-chloroimidazo[1,5-a]pyridin-5-yl)(cyclohexyl)methanol]	–	3300	–	–
O=C(c1ccccc1)c1cccn2cncc12 [Example B003, Imidazo[1,5-a]pyridin-8-yl(phenyl)methanone]	–	–	–	> 100000
